{
  "source": "patent US7960130B2",
  "about": "“Method for activation of transient receptor potential cation channel, subfamily A, member 1 using acetaldehyde” (Korea University Industry and Academy Cooperation Foundation, priority 2008, dated 2011)",
  "key": {"[1]": {"system": "ICR mice", "test": "Acute hindpaw licking/flicking behavioral analysis", "details": "for suppression of acetaldehyde-evoked licking/flicking behaviors: 100 mM acetaldehyde, 1 mM ruthenium red, 100 μM or 1 mM GdCl3 injected 5 min prior; for suppression of acetaldehyde-evoked licking/flicking behaviors / suppression of cinnamaldehyde-evoked licking/flicking behaviors: 10 mM camphor; for suppression of cinnamaldehyde-evoked licking/flicking behaviors: 10 mM cinnamaldehyde, 100 μM or 1 mM GdCl3, intradermal", "description": "This analysis was performed in accordance with protocols approved by the University Committee on Laboratory Animals. Mice were acclimated for 1 h to the test environment prior to experiments. Drugs dissolved in vehicle (PBS containing 0.5% Tween 80) were injected into mice right hindpaws intradermally."}, "[2]": {"biological_target": "T1, mTRPA1 (Mus musculus, UniProt Q8BLA8)", "T1 construct": "expressed in transfected cells; host or cells: HEK293T (ATCC CRL-11268), pcDNA5/FRT", "T1 sequence (Q8BLA8 whole entry)": "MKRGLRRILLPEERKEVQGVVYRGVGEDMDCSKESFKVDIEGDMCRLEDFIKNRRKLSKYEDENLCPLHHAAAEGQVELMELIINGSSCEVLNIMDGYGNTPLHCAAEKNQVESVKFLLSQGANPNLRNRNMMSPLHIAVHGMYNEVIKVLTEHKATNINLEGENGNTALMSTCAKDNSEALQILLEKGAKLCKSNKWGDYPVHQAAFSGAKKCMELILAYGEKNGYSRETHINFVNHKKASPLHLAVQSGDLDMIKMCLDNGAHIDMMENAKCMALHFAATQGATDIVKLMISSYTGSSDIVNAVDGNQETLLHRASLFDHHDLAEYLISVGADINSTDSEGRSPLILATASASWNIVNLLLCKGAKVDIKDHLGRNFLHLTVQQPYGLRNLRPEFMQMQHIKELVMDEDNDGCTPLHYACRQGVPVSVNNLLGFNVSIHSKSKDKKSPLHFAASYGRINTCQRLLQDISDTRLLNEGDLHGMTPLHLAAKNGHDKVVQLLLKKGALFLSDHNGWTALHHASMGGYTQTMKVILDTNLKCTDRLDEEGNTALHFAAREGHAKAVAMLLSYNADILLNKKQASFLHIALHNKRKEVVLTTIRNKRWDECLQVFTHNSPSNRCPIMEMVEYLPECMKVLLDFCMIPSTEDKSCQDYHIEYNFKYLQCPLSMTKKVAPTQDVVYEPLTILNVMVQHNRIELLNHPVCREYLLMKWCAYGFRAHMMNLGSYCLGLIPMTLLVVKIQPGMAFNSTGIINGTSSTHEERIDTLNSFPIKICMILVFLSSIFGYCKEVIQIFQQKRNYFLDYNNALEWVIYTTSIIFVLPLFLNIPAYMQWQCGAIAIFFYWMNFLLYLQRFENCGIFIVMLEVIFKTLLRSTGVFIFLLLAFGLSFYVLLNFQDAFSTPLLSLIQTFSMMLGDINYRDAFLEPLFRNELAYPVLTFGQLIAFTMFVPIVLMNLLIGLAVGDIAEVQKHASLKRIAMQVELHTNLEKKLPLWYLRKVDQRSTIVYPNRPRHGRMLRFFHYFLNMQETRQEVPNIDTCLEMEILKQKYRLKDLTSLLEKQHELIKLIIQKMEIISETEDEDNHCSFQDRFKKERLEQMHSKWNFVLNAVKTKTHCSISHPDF", "test": "Fluo-3 calcium imaging of mTRPA1-transfected HEK293T cells", "type": "cell-based", "details": "1 mM acetaldehyde + 2 mM camphor or 10 μM ruthenium red, n=21", "protocol": "(§1) Particularly, the HEK293T cell line was transiently transfected with individual TRP channel plasmid (pcDNA3.1 containing polynucleotide encoding hTRPA1, rTRPV2, rTRPV1 or mTRPV4; pcDNA5/FRT containing polynucleotide encoding mTRPA1, hTRPV3 or mTRPM8) 3 μg per 35-mm dish and 600 ng/well of pcDNA3 (Invitrogen Corp., USA; containing green fluorescent protein (GFP) cDNA) using Fugene6 (Roche Diagnostics, USA) according to manufacturer's instruction. The transformed cells were cultured in DMEM/F12 containing 10% FBS and 1% penicillin/streptomycin in a CO2 incubator for 24 hours. The cells were replated onto poly-L-lysine-coated glass coverslips, followed by further culture for 10-24 hours.\n(§2) Calcium imaging was performed with a confocal microscope (LSM5 Pascal, Carl Zeiss, Germany), and time-lapse images (488 nm excitation/514 nm emission) were collected every 3 seconds using Carl Zeiss ratio tool software (Carl Zeiss, Germany).\n(§3) Stock solutions were made using water or ethanol, and were diluted with test solutions before use."}, "[3]": {"biological_target": "T2, hTRPA1 (Homo sapiens, UniProt O75762)", "T2 construct": "expressed in transfected cells; host or cells: HEK293T (ATCC CRL-11268), pcDNA3.1", "T2 sequence (O75762 whole entry)": "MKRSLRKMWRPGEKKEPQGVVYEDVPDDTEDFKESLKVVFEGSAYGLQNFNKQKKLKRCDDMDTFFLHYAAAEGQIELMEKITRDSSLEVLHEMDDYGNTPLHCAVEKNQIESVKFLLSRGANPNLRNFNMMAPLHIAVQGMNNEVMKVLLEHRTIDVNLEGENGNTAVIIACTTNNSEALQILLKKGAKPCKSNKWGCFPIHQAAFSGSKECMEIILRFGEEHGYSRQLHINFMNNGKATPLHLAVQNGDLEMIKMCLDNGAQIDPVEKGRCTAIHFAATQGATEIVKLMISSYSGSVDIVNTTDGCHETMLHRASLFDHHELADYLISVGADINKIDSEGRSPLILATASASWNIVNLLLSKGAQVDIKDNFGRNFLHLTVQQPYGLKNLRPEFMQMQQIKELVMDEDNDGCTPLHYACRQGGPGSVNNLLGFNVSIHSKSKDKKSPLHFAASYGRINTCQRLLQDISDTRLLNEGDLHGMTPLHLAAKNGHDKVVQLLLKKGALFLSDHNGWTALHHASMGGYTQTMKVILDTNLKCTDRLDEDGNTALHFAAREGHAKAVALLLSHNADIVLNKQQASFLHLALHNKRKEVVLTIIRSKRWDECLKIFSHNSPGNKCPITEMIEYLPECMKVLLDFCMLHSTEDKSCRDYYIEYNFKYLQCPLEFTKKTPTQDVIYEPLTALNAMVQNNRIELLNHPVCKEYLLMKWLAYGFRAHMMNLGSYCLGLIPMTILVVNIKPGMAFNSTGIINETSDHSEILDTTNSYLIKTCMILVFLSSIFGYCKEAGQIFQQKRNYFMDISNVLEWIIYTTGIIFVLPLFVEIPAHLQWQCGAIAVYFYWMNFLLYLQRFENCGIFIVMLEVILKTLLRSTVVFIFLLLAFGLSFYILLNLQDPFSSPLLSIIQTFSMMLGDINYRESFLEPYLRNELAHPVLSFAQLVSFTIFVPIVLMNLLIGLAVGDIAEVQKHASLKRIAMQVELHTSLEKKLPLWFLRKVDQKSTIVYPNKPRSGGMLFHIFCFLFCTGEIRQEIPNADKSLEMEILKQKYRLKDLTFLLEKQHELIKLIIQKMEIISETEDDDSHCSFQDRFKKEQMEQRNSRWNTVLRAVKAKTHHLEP", "test": "Fluo-3 calcium imaging of hTRPA1-transfected HEK293T cells", "type": "cell-based", "details": "for suppression of acetaldehyde-evoked intracellular calcium influx (hTRPA1): 1 mM acetaldehyde + 2 mM camphor or 10 μM ruthenium red, n=12; for elevation of intracellular calcium levels in hTRPA1-expressing cells: 1 mM acetaldehyde, 300 μM cinnamaldehyde, 10 mM acetic acid, 1% methanol, 1% ethanol", "protocol": "as §1, §3, §2, §3"}, "[4]": {"system": "trigeminal neurons", "test": "Fluo-3 calcium imaging of cultured mouse trigeminal neurons", "details": "1 μM PGE2 + modulator: SC-51089 10 μM, U73122 3 μM, U73343 3 μM, BIM 1 μM, chelerythrine 1 μM, H-89 10 μM"}, "[5]": {"system": "TRPA1", "test": "Whole-cell voltage-clamp recording of TRPA1 transfected cell line", "type": "cell-based", "protocol": "as §1, §3\nThis experiment was repeated 5 times."}, "[6]": {"system": "trigeminal neurons", "test": "Whole-cell voltage-clamp recording of cultured trigeminal neurons", "type": "cell-based, mouse", "details": "1 mM acetaldehyde, co-application of 20 μM GdCl3 and 2 mM camphor", "protocol": "Trigeminal ganglia were dissected out of decapitated adult ICR mice in cold PBS and treated with 1.5 mg/Ml of collagenase/dispase (Roche Diagnostics, USA) at 37 °C for 45 min, and then treated with 0.25% trypsin (Invitrogen, USA) for 15 min. The trigeminal neurons prepared thereby were then plated onto poly-L-lysine-coated coverslips in DMEM/F12 containing 10% FBS, 1% penicillin/streptomycin and 5 ng/Ml of 2.5S NGF (Invitrogen, USA), nerve growth factor (Invitrogen), followed by culture in a CO2 incubator for 48-72 hours.\nParticularly, the extracellular solution (140 mM NaCl, 5 mM KCl, 2 mM CaCl2, 1 mM MgCl2, 10 mM HEPES; titrated to pH 7.4 with NaOH) and the pipette solution (140 mM CsCl, 5 mM EGTA, 10 mM HEPES, 2.0 mM MgATP, 0.2 mM NaGTP; titrated to pH 7.2 with CsOH) were used. The potential was holded at −60 mV for 250 ms, voltage-ramp pulsed from −80 mV to +80 mV for […] and returned to −60 mV for 250 ms, which was repeated without intersweep. This experiment was repeated 5 times.\nThe trigeminal neurons prepared by the same manner as described in Example 2 were delayed-treated with 1 mM acetaldehyde, followed by treatment of 20 μM GdCl3 (a TRPA1 blocker gadolinium; Sigma-Aldrich, USA) and 2 mM camphor. Then, whole-cell voltage-clamp recording was performed by the same manner as described in Example <5-2>."}},
  "note": "“Also recorded” adds a separate entry of the source.",
  "data": [
    {"molecule": "N.N.N.N.N.N.N.N.N.N.N.N.N.N.[Cl-].[Cl-].[Cl-].[Cl-].[Cl-].[Cl-].[O-2].[O-2].[Ru+3].[Ru+3].[Ru+4]", "note": "[ruthenium red]", "values": [
      {"measurement": "suppression of acetaldehyde-evoked licking/flicking behaviors", "setting": "[1]; intradermal", "result": "suppressed"},
      {"measurement": "suppression of acetaldehyde-evoked intracellular calcium influx (mTRPA1)", "setting": "[2]", "result": "suppressed"},
      {"measurement": "suppression of acetaldehyde-evoked intracellular calcium influx (hTRPA1)", "setting": "[3]", "result": "so did; also recorded: suppressed"}
    ]},
    {"molecule": "SC-51089", "values": [
      {"measurement": "suppression of the PGE2-induced potentiation of acetaldehyde responses", "setting": "[4]", "result": "significantly suppressed"}
    ]},
    {"molecule": "bisindolmaleimide [BIM]", "values": [
      {"measurement": "suppression of the PGE2-induced potentiation of acetaldehyde responses", "setting": "[4]", "result": "significantly suppressed"}
    ]},
    {"molecule": "COc1ccc2c(c1)CC[C@@H]1[C@@H]2CC[C@]2(C)[C@@H](NCCCCCCN3C(=O)C=CC3=O)CC[C@@H]12", "note": "[U73122]", "values": [
      {"measurement": "suppression of the PGE2-induced potentiation of acetaldehyde responses", "setting": "[4]", "result": "significantly suppressed"}
    ]},
    {"molecule": "CCO", "note": "[ethanol]", "values": [
      {"measurement": "elevation of intracellular calcium levels in hTRPA1-expressing cells", "setting": "[3]", "result": "failed to elevate intracellular calcium levels"}
    ]},
    {"molecule": "COc1ccc2c(c1)CC[C@@H]1[C@@H]2CC[C@]2(C)[C@@H](NCCCCCCN3C(=O)CCC3=O)CC[C@@H]12", "note": "[U73343]", "values": [
      {"measurement": "suppression of the PGE2-induced potentiation of acetaldehyde responses", "setting": "[4]", "result": "did not suppress"}
    ]},
    {"molecule": "CO", "note": "[methanol]", "values": [
      {"measurement": "elevation of intracellular calcium levels in hTRPA1-expressing cells", "setting": "[3]", "result": "failed to elevate intracellular calcium levels"}
    ]},
    {"molecule": "COc1ccc2c(c[n+](C)c3c4cc5c(cc4ccc23)OCO5)c1OC", "note": "[chelerythrine]", "values": [
      {"measurement": "suppression of the PGE2-induced potentiation of acetaldehyde responses", "setting": "[4]", "result": "significantly suppressed"}
    ]},
    {"molecule": "O=S(=O)(NCCNC/C=C/c1ccc(Br)cc1)c1cccc2cnccc12", "note": "[H-89]", "values": [
      {"measurement": "suppression of the PGE2-induced potentiation of acetaldehyde responses", "setting": "[4]", "result": "did not suppress"}
    ]},
    {"molecule": "O=CC=Cc1ccccc1", "note": "[cinnamaldehyde]", "values": [
      {"measurement": "whole-cell current response in TRPA1 expressing cells", "setting": "[5]; 1 mM acetaldehyde, 300 μM cinnamaldehyde, voltage ramp -80 to +80 mV, n=5", "result": "responsive"},
      {"measurement": "acute hindpaw licking/flicking behavior elicited", "setting": "[1]; intradermal into hindpaw, 10 μl, 100 mM acetaldehyde or 10 mM cinnamaldehyde, 10 min, n=5", "result": "time spent in licking/flicking behaviors increased"},
      {"measurement": "elevation of intracellular calcium levels in hTRPA1-expressing cells", "setting": "[3]", "result": "TRPA1-specific responses; also recorded: responded"}
    ]},
    {"molecule": "CC12CCC(CC1=O)C2(C)C", "note": "(stereo not drawn) [camphor]", "values": [
      {"measurement": "inhibition of acetaldehyde-evoked current in trigeminal neurons", "setting": "[6]", "result": "inhibited"},
      {"measurement": "inhibition of acetaldehyde-evoked current in TRPA1 expressing cells", "setting": "[5]; 1 mM acetaldehyde + 2 mM camphor", "result": "inhibited"},
      {"measurement": "suppression of cinnamaldehyde-evoked licking/flicking behaviors", "setting": "[1]", "result": "suppressed"},
      {"measurement": "duration of suppressive effect on PGE2-potentiated sensitization", "setting": "[1]; 100 mM acetaldehyde + 1 μM PGE2 + 10 mM camphor", "result": 8, "unit": "min"},
      {"measurement": "suppression of the effect of co-injection of acetaldehyde and PGE2", "setting": "[1]; 100 mM acetaldehyde + 1 μM PGE2 + 10 mM camphor, intradermal", "result": "suppressed"},
      {"measurement": "suppression of acetaldehyde-evoked licking/flicking behaviors", "setting": "[1]; intradermal", "result": "suppressed"},
      {"measurement": "suppression of acetaldehyde-evoked intracellular calcium influx (mTRPA1)", "setting": "[2]", "result": "suppressed"},
      {"measurement": "suppression of acetaldehyde-evoked intracellular calcium influx (hTRPA1)", "setting": "[3]", "result": "completely suppressed"}
    ]},
    {"molecule": "[Cl][Gd]([Cl])[Cl]", "note": "[GdCl3]", "values": [
      {"measurement": "inhibition of acetaldehyde-evoked current in trigeminal neurons", "setting": "[6]", "result": "inhibited"},
      {"measurement": "suppression of nociceptive behaviors at a micromolar dose", "setting": "[1]; 100 μM GdCl3, intradermal", "result": "significantly suppress"},
      {"measurement": "suppression of cinnamaldehyde-evoked licking/flicking behaviors", "setting": "[1]", "result": "suppressed"},
      {"measurement": "suppression of acetaldehyde-evoked licking/flicking behaviors", "setting": "[1]; intradermal", "result": "suppressed"}
    ]},
    {"molecule": "CC(=O)O", "note": "[acetic acid]", "values": [
      {"measurement": "elevation of intracellular calcium levels in hTRPA1-expressing cells", "setting": "[3]", "result": "failed to elevate intracellular calcium levels"}
    ]}
  ]
}
